# Laboratory results as given in article PMC4515825, “Molecular mechanisms of the non-coenzyme action of thiamin in brain: biochemical, structural and pathway analysis” (Scientific Reports, 2015).
# Tests used:
# [1] = target: T1, pyridoxal kinase (PdxK) (Homo sapiens, UniProt O00764); experiment: enzyme activity assay; type: biochemical; design: human recombinant
# T1 sequence (O00764 1-312): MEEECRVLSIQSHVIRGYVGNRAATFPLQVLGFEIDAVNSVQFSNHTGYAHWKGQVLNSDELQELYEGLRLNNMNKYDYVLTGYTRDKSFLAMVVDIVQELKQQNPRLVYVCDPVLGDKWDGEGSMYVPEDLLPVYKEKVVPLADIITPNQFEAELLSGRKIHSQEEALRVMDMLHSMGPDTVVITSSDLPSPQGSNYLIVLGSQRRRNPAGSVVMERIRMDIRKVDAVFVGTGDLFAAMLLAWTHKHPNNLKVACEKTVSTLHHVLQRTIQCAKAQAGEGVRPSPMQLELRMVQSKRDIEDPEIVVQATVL
# [2] = target: T1, pyridoxal kinase (PdxK); experiment: steady-state enzyme kinetics ([…] nm), Lineweaver-Burk and secondary plots; type: biochemical; design: wild-type human recombinant
compound,measurement,setting,value
"CCCCCCCCCCOC(=O)C[n+]1csc(CCO)c1C [DMHT, 3-decyloxycarbonylmethyl-4-methyl-5-(2-hydroxyethyl) thiazolium]",enzyme activity assay,[1],"Figure 2B shows that both compounds affected PdxK activity, supporting the direct interaction of the enzyme"
Cc1ncc(C[n+]2csc(CCOP(=O)([O-])OP(=O)(O)O)c2C)c(N)n1 [thiamin diphosphate],Ki,[2],3300 µM
Cc1ncc(C[n+]2csc(CCO)c2C)c(N)n1 [thiamin],Ki,[2],2200 µM
